According to US20060240048A1 (priority 2002, published 2006):

Molecular target: T1, human cannabinoid CB2 receptor (Homo sapiens, UniProt P34972)
T1 construct: expressed in transfected cells; host or cells: Saccharomyces cerevisiae strain MMY23
Assay: Cannabinoid CB2 receptor agonist activity, yeast reporter assay (FDGlu fluorescence);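 for Emax: 100% equals maximal response of reference agonist HU210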
Format: cell-based
Settings: for Emax: read-out: efficacy value (Emax) at the cloned human cannabinoid CB2 receptor
Protocol: The cannabinoid CB2 receptor agonist activity of the compounds of formula (I) was determined in accordance with the following experimental method.
Yeast (Saccharomyces cerevisiae) cells expressing the human cannabinoid CB2 receptor were generated by integration of an expression cassette into the ura3 chromosomal locus of yeast strain MMY23. This cassette consisted of DNA sequence encoding the human CB2 receptor flanked by the yeast GPD promoter to the 5′ end of CB2 and a yeast transcriptional terminator sequence to the 3′ end of CB2. MMY23 expresses a yeast/mammalian chimeric G-protein alpha subunit in which the C-terminal 5 amino acids of Gpa1 are replaced with the C-terminal 5 amino acids of human Gαi3 (as described in Brown et al. (2000), Yeast 16:11-22). Cells were grown at 30° C. in liquid Synthetic Complete (SC) yeast media (Guthrie and Fink (1991), Methods in Enzymology, Vol. 194) lacking uracil, tryptophan, adenine and leucine to late logarithmic phase (approximately 6 OD600/ml).
Agonists were prepared as 10 mM stocks in DMSO. […] Agonist solutions in DMSO (1% final assay volume) were transferred into black, clear bottom, microtitre plates from NUNC (96- or 384-well). […] This mixture (50 ul per well for 384-well plates, 200 ul per well for 96-well plates) was added to agonist in the assay plates (Multidrop 384, Labsystems). After incubation at 30° C. for 24 hours, fluorescence resulting from degradation of FDGlu to fluorescein due to exoglucanase, an endogenous yeast enzyme produced during agonist-stimulated cell growth, was determined using a Spectrofluor microtitre plate reader (Tecan; excitation wavelength: 485 nm; emission wavelength: 535 nm). Fluorescence was plotted against compound concentration and iteratively curve fitted using a four parameter fit to generate a concentration effect value.
where Max[compound X] and Min[compound X] are the fitted maximum and minimum respectively from the concentration effect curve for compound X, and Max[HU210] and Min[HU210] are the fitted maximum and minimum respectively from the concentration effect curve for (6aR,10aR)-3-(1,1′-Dimethylheptyl)-6a,7,10,10a-tetrahydro-1-hydroxy-6,6-dimethyl-6H-dibenzo[b,d]pyran-9-methanol (HU210; available from Tocris). Equieffective molar ratio (EMR) values were calculated from the equation EMR=EC50 [compound X]/EC50 [HU210]
Where EC50 [compound X] is the EC50 of compound X and EC50 [HU210] is the EC50 of HU210.

T1 sequence (P34972 whole entry): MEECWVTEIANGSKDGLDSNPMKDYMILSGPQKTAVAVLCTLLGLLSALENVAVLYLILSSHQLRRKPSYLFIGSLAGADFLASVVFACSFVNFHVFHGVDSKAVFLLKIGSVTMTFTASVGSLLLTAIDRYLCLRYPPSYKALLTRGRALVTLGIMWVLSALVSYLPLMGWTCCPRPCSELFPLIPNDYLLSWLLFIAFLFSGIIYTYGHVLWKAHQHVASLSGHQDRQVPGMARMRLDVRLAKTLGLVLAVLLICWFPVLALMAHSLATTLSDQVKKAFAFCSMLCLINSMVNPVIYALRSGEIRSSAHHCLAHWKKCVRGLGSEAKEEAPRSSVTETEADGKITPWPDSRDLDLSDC

Compound: COc1cccc(Nc2cc(C(C)C)c(C(=O)NCC3CCC3)cn2)c1 [Example 38, N-Cyclobutylmethyl-4-isopropyl-6-(3-methoxy-phenylamino)-nicotinamide]
- EC50: < 0.3 µM
- Emax: > 50%

Compound: CC(C)c1cc(Nc2cccc(F)c2)ncc1C(=O)NCC1CCOCC1 [Example 39, 6-(3-Fluoro-phenylamino)-4-isopropyl-N-(tetrahydro-pyran-4-ylmethyl)-nicotinamide]
- Emax: > 50%

Compound: COc1cccc(Nc2cc(C(C)C)c(C(=O)NCC3CCOCC3)cn2)c1 [Example 41, 4-Isopropyl-6-(3-methoxy-phenylamino)-N-(tetrahydro-pyran-4-ylmethyl)-nicotinamide]
- Emax: > 50%

Compound: CC(C)c1cc(N(C)c2ccc(Cl)c(Cl)c2)ncc1C(=O)NCC1CCOCC1 [Example 44, 6-[(3,4-Dichloro-phenyl)-methyl-amino]-4-isopropyl-N-(tetrahydro-pyran-4-ylmethyl)-nicotinamide]
- Emax: > 50%

Compound: CC(C)c1cc(Nc2cccc(Cl)c2)ncc1C(=O)NC1CCC1 [Example 50, 6-(3-Chloro-phenylamino)-N-cyclobutyl-4-isopropyl-nicotinamide]
- EC50: < 0.3 µM
- Emax: > 50%

Compound: CC(C)c1cc(Nc2cccc(Cl)c2)ncc1C(=O)NCC1CC1 [Example 51, 6-(3-Chloro-phenylamino)-N-cyclopropylmethyl-4-isopropyl-nicotinamide]
- EC50: < 0.3 µM
- Emax: > 50%

Compound: CCC(CC)CNC(=O)c1cnc(Nc2cccc(Cl)c2)cc1C(C)C [Example 52, 6-(3-Chloro-phenylamino)-N-(2-ethyl-butyl)-4-isopropyl-nicotinamide]
- Emax: > 50%

Compound: CC(C)c1cc(Nc2cccc(Cl)c2)ncc1C(=O)NC1CCCCC1 [Example 53, 6-(3-Chloro-Phenylamino)-N-cyclohexyl-4-isopropyl-nicotinamide]
- EC50: < 0.3 µM
- Emax: > 50%

Compound: CC(C)c1cc(Nc2cccc(Cl)c2)ncc1C(=O)NCC1(O)CCCCC1 [Example 54, 6-(3-Chloro-phenylamino)-N-(1-hydroxy-cyclohexylmethyl)-4-isopropyl-nicotinamide]
- EC50: < 0.3 µM
- Emax: > 50%

Compound: CC(C)c1cc(Nc2cccc(Cl)c2)ncc1C(=O)N1CCCCC1 [Example 55, 1-[6-(3-Chloro-phenylamino)-4-isopropyl-pyridin-3-yl]-1-piperidin-1-yl-methanone]
- EC50: < 0.3 µM
- Emax: > 50%

Compound: COCCNC(=O)c1cnc(Nc2cccc(Cl)c2)cc1C(C)C [Example 57, 6-(3-Chloro-phenylamino)-4-isopropyl-N-(2-methoxy-ethyl)-nicotinamide]
- Emax: > 50%

Compound: CC(C)c1cc(Nc2cccc(Cl)c2)ncc1C(=O)NC1CCOCC1 [Example 58, 6-(3-Chloro-phenylamino)-4-isopropyl-N-(tetrahydro-pyran-4-yl)-nicotinamide]
- Emax: > 50%

Compound: CC(C)(C)c1cc(Nc2cccc(Cl)c2)ncc1C(=O)NCC1CCCCC1 [Example 69, 4-tert-Butyl-6-(3-chloro-phenylamino)-N-cyclohexylmethyl-nicotinamide]
- EC50: < 0.3 µM
- Emax: > 50%

Compound: CC(C)(C)c1cc(Nc2ccc(Cl)cc2Cl)ncc1C(=O)NCC1CCCCC1 [Example 70, 4-tert-Butyl-6-(2,4-dichloro-phenylamino)-N-cyclohexylmethyl-nicotinamide]
- EC50: < 0.3 µM
- Emax: > 50%

Compound: CC(C)(C)c1cc(Nc2cccc(Cl)c2)ncc1C(=O)NCC1CCOCC1 [Example 71, 4-tert-Butyl-6-(3-phenylamino)-N-(tetrahydro-pyran-4-ylmethyl)-nicotinamide]
- EC50: < 0.3 µM
- Emax: > 50%

Compound: CC(C)(C)c1cc(Nc2cccc(F)c2)ncc1C(=O)NCC1CCOCC1 [Example 72, 4-tert-Butyl-6-(3-fluoro-phenylamino)-N-(tetrahydro-pyran-4-ylmethyl)-nicotinamide]
- EC50: < 0.3 µM
- Emax: > 50%

Compound: CC(C)c1cc(Nc2cc(Cl)cc(Cl)c2)ncc1C(=O)NCC1CCOCC1 [Example 75, 6-(3,5-Dichloro-phenylamino)-4-isopropyl-N-(tetrahydro-pyran-4-ylmethyl)-nicotinamide]
- EC50: < 0.3 µM
- Emax: > 50%

Compound: CC(C)c1cc(Nc2cc(Cl)ccc2F)ncc1C(=O)NCC1CCOCC1 [Example 76, 6-(5-Chloro-2-fluoro-phenylamino)-4-isopropyl-N-(tetrahydro-pyran-4-ylmethyl)-nicotinamide]
- EC50: < 0.3 µM
- Emax: > 50%

Compound: CC(C)c1cc(Nc2ccc(F)c(Cl)c2)ncc1C(=O)NCC1CCOCC1 [Example 77, 6-(3-Chloro-4-fluoro-phenylamino)-4-isopropyl-N-(tetrahydro-pyran-4-ylmethyl)-nicotinamide]
- EC50: < 0.3 µM
- Emax: > 50%

Compound: CC(C)c1cc(Nc2ccc(OC(F)(F)F)c(Cl)c2)ncc1C(=O)NCC1CCOCC1 [Example 78, 6-(3-Chloro-4-trifluoromethoxy-phenylamino)-4-isopropyl-N-(tetrahydro-pyran-4-ylmethyl)-nicotinamide]
- EC50: < 0.3 µM
- Emax: > 50%

Compound: CC(C)c1cc(Nc2ccc(C#N)c(Cl)c2)ncc1C(=O)NCC1CCOCC1 [Example 79, 6-(3-Chloro-4-cyano-phenylamino)-4-isopropyl-N-(tetrahydro-pyran-4-ylmethyl) nicotinamide]
- Emax: > 50%

Compound: CC(C)c1cc(Nc2cc(F)cc(C(F)(F)F)c2)ncc1C(=O)NCC1CCOCC1 [Example 80, 6-(3-Fluoro-5-trifluoromethyl-phenylamino)-4-isopropyl-N-(tetrahydro-pyran-4-ylmethyl) nicotinamide]
- EC50: < 0.3 µM
- Emax: > 50%

Compound: CC(C)c1cc(Nc2cccc(C(F)(F)F)c2F)ncc1C(=O)NCC1CCOCC1 [Example 81, 6-(2-Fluoro-3-trifluoromethyl-isopropyl-N-phenylamino)-4-(tetrahydro-pyran-4-ylmethyl) nicotinamide]
- Emax: > 50%

Compound: CC(C)c1cc(Nc2ccc(Br)cc2Cl)ncc1C(=O)NCC1CCOCC1 [Example 82]
- EC50: < 0.3 µM
- Emax: > 50%

Compound: CC(C)c1cc(Nc2ccc(Cl)cc2Br)ncc1C(=O)NCC1CCOCC1 [Example 83, 6-(2-Bromo-4-chloro-phenylamino)-4-isopropyl-N-(tetrahydro-pyran-4-ylmethyl) nicotinamide]
- EC50: < 0.3 µM
- Emax: > 50%

Compound: Cc1c(Nc2cc(C(C)C)c(C(=O)NCC3CCOCC3)cn2)cccc1C(F)(F)F [Example 84, 4-lsopropyl-6-(2-methyl-3-trifluoromethyl-phenylamino)-N-(tetrahydro-pyran-4-ylmethyl)-nicotinamide]
- EC50: < 0.3 µM
- Emax: > 50%

Compound: Cc1ccc(Nc2cc(C(C)C)c(C(=O)NCC3CCOCC3)cn2)cc1Cl [Example 85]
- EC50: < 0.3 µM
- Emax: > 50%

Compound: Cc1cc(Nc2cc(C(C)C)c(C(=O)NCC3CCOCC3)cn2)ccc1Br [Example 86, 6-(4-Bromo-3-methyl-phenylamino)-4-isopropyl-N-(tetrahydro-pyran-4-ylmethyl)-nicotinamide]
- EC50: < 0.3 µM
- Emax: > 50%

Compound: CC(C)c1cc(Nc2cc(Cl)ccc2Cl)ncc1C(=O)NCC1CCOCC1 [Example 87, 6-(2,5-Dichloro-phenylamino)-4-isopropyl-N-(tetrahydro-pyran-4-ylmethyl)-nicotinamide]
- EC50: < 0.3 µM
- Emax: > 50%

Compound: Cc1ccc(C(F)(F)F)cc1Nc1cc(C(C)C)c(C(=O)NCC2CCOCC2)cn1 [Example 88, 4-lsopropyl-6-(2-methyl-5-trifluoromethyl-phenylamino)-N-(tetrahydro-pyran-4-ylmethyl)-nicotinamide]
- EC50: < 0.3 µM
- Emax: > 50%

Compound: CC(C)c1cc(Nc2ccc(Cl)cc2Br)ncc1C(=O)NCC1CCCC1 [Example 89, 6-(2-Bromo-4-chloro-phenylamino)-N-cyclopentylmethyl-4-isopropyl-nicotinamide]
- EC50: < 0.3 µM
- Emax: > 50%

Compound: CC(C)c1cc(Nc2ccc(Br)c(Cl)c2)ncc1C(=O)NCC1CCOCC1 [Example 90, 6-(4-Bromo-3-chloro-phenylamino)-4-isopropyl-N-(tetrahydro-pyran-4-ylmethyl)-nicotinamide]
- EC50: < 0.3 µM
- Emax: > 50%

Compound: CC(C)c1cc(Nc2ccc(Cl)cc2F)ncc1C(=O)NCC1CCCC1 [Example 91, 6-(4-Chloro-2-fluoro-phenylamino)-N-cyclopentylmethyl-4-isopropyl-nicotinamide]
- EC50: < 0.3 µM
- Emax: > 50%

Compound: CC(C)c1cc(Nc2ccc(C(F)(F)F)c(F)c2)ncc1C(=O)NCC1CCCC1 [Example 92, N-Cyclopentylmethyl-6-(3-fluoro-4-trifluoromethyl-phenylamino)-4-isopropyl-nicotinamide]
- EC50: < 0.3 µM
- Emax: > 50%
